Assays:
[1] = xn = mol fraction of the nth substance listed; settings: 318.15 K, 101 kPa, Liquid
[2] = excess molar enthalpy (molar enthalpy of mixing); xn = mol fraction of the nth substance listed; settings: 318.15 K, 101 kPa, Liquid

CCOC(=O)CC [ethyl propanoate] + CCCCCCC
Settings | excess molar enthalpy [kcal/mol] | excess molar volume [m3/mol]
[1], x1 = 0.0401 | – | 1.58e-07
[1], x1 = 0.0797 | – | 3.09e-07
[1], x1 = 0.1474 | – | 5.09e-07
[1], x1 = 0.2182 | – | 6.76e-07
[1], x1 = 0.2873 | – | 7.86e-07
[1], x1 = 0.3497 | – | 8.53e-07
[1], x1 = 0.4098 | – | 8.95e-07
[1], x1 = 0.5276 | – | 8.77e-07
[1], x1 = 0.5897 | – | 8.41e-07
[1], x1 = 0.6453 | – | 7.71e-07
[1], x1 = 0.701 | – | 7.23e-07
[1], x1 = 0.7534 | – | 6.41e-07
[1], x1 = 0.808 | – | 5.27e-07
[1], x1 = 0.8554 | – | 4.12e-07
[1], x1 = 0.9045 | – | 2.9e-07
[1], x1 = 0.9534 | – | 1.5e-07
[2], x1 = 0.0724 | 0.0766 | –
[2], x1 = 0.1469 | 0.142 | –
[2], x1 = 0.2238 | 0.196 | –
[2], x1 = 0.294 | 0.234 | –
[2], x1 = 0.3653 | 0.261 | –
[2], x1 = 0.4286 | 0.273 | –
[2], x1 = 0.4855 | 0.277 | –
[2], x1 = 0.5345 | 0.274 | –
[2], x1 = 0.5733 | 0.267 | –
[2], x1 = 0.5847 | 0.264 | –
[2], x1 = 0.6302 | 0.254 | –
[2], x1 = 0.682 | 0.237 | –
[2], x1 = 0.7393 | 0.213 | –
[2], x1 = 0.7978 | 0.181 | –
[2], x1 = 0.8563 | 0.142 | –
[2], x1 = 0.9088 | 0.0966 | –
[2], x1 = 0.963 | 0.0455 | –

CCOC(=O)CC [ethyl propanoate] + CCCCCCCCC
Settings | excess molar enthalpy, [2] [kcal/mol] | excess molar volume, [1] [m3/mol]
x1 = 0.0376 | – | 1.65e-07
x1 = 0.0817 | 0.092 | –
x1 = 0.0926 | – | 3.58e-07
x1 = 0.1719 | 0.168 | –
x1 = 0.1744 | – | 6.18e-07
x1 = 0.2554 | – | 8.2e-07
x1 = 0.2598 | 0.231 | –
x1 = 0.3255 | – | 9.43e-07
x1 = 0.3403 | 0.272 | –
x1 = 0.3925 | – | 1.022e-06
x1 = 0.4145 | 0.297 | –
x1 = 0.457 | – | 1.075e-06
x1 = 0.4797 | 0.309 | –
x1 = 0.4909 | 0.311 | –
x1 = 0.523 | – | 1.077e-06
x1 = 0.5379 | 0.31 | –
x1 = 0.5764 | 0.305 | –
x1 = 0.5826 | – | 1.066e-06
x1 = 0.5876 | 0.303 | –
x1 = 0.6277 | 0.291 | –
x1 = 0.6348 | – | 1.027e-06
x1 = 0.6791 | 0.271 | –
x1 = 0.6882 | – | 9.47e-07
x1 = 0.732 | 0.243 | –
x1 = 0.7398 | – | 8.52e-07
x1 = 0.7883 | 0.207 | 7.57e-07
x1 = 0.8344 | – | 6.26e-07
x1 = 0.8451 | 0.163 | –
x1 = 0.878 | – | 5.01e-07
x1 = 0.9016 | 0.111 | –
x1 = 0.9181 | – | 3.41e-07
x1 = 0.9517 | 0.0589 | –
x1 = 0.9584 | – | 1.81e-07

CCCCCCCCCCCCCCCCC [heptadecane] + CCC(=O)OC
Settings | excess molar enthalpy [kcal/mol] | excess molar volume [m3/mol]
[1], x2 = 0.0755 | – | 3.32e-07
[1], x2 = 0.1644 | – | 6.94e-07
[1], x2 = 0.3049 | – | 1.182e-06
[1], x2 = 0.409 | – | 1.452e-06
[1], x2 = 0.5004 | – | 1.581e-06
[1], x2 = 0.5739 | – | 1.623e-06
[1], x2 = 0.6379 | – | 1.592e-06
[1], x2 = 0.6942 | – | 1.504e-06
[1], x2 = 0.7425 | – | 1.39e-06
[1], x2 = 0.7831 | – | 1.271e-06
[1], x2 = 0.8219 | – | 1.128e-06
[1], x2 = 0.8553 | – | 9.81e-07
[1], x2 = 0.8846 | – | 8.56e-07
[1], x2 = 0.9369 | – | 5.66e-07
[1], x2 = 0.9596 | – | 4.18e-07
[1], x2 = 0.9803 | – | 2.34e-07
[2], x2 = 0.0946 | 0.132 | –
[2], x2 = 0.2186 | 0.277 | –
[2], x2 = 0.3238 | 0.387 | –
[2], x2 = 0.4115 | 0.457 | –
[2], x2 = 0.4797 | 0.492 | –
[2], x2 = 0.5289 | 0.508 | –
[2], x2 = 0.5687 | 0.513 | –
[2], x2 = 0.5996 | 0.514 | –
[2], x2 = 0.6291 | 0.509 | –
[2], x2 = 0.6637 | 0.499 | –
[2], x2 = 0.6974 | 0.479 | –
[2], x2 = 0.7327 | 0.451 | –
[2], x2 = 0.7677 | 0.417 | –
[2], x2 = 0.8042 | 0.371 | –
[2], x2 = 0.8381 | 0.328 | –
[2], x2 = 0.8741 | 0.271 | –
[2], x2 = 0.909 | 0.214 | –
[2], x2 = 0.9409 | 0.148 | –
[2], x2 = 0.9721 | 0.0753 | –

CCCCCCCCCCCCCCCCC [heptadecane] + CCCCOC(=O)CC
Settings | excess molar enthalpy [kcal/mol] | excess molar volume [m3/mol]
[1], x2 = 0.1135 | – | 3.06e-07
[1], x2 = 0.2186 | – | 5.48e-07
[1], x2 = 0.3079 | – | 7.39e-07
[1], x2 = 0.3903 | – | 8.52e-07
[1], x2 = 0.4652 | – | 8.98e-07
[1], x2 = 0.5331 | – | 9.21e-07
[1], x2 = 0.5915 | – | 9.16e-07
[1], x2 = 0.6482 | – | 8.91e-07
[1], x2 = 0.7001 | – | 8.35e-07
[1], x2 = 0.7497 | – | 7.85e-07
[1], x2 = 0.7938 | – | 6.9e-07
[1], x2 = 0.8335 | – | 6.09e-07
[1], x2 = 0.8704 | – | 5.1e-07
[1], x2 = 0.907 | – | 4.01e-07
[1], x2 = 0.9407 | – | 2.87e-07
[1], x2 = 0.9701 | – | 1.43e-07
[2], x2 = 0.0939 | 0.101 | –
[2], x2 = 0.1935 | 0.175 | –
[2], x2 = 0.2953 | 0.241 | –
[2], x2 = 0.3647 | 0.278 | –
[2], x2 = 0.4302 | 0.3 | –
[2], x2 = 0.4836 | 0.311 | –
[2], x2 = 0.5295 | 0.314 | –
[2], x2 = 0.5642 | 0.313 | –
[2], x2 = 0.5727 | 0.312 | –
[2], x2 = 0.5964 | 0.31 | –
[2], x2 = 0.6386 | 0.298 | –
[2], x2 = 0.6808 | 0.284 | –
[2], x2 = 0.7248 | 0.264 | –
[2], x2 = 0.7703 | 0.236 | –
[2], x2 = 0.8172 | 0.202 | –
[2], x2 = 0.8639 | 0.164 | –
[2], x2 = 0.911 | 0.116 | –
[2], x2 = 0.9568 | 0.0625 | –

CCCCCCCCCCCCCCCCC [heptadecane] + CCCOC(=O)CC
Settings | excess molar enthalpy [kcal/mol] | excess molar volume [m3/mol]
[1], x2 = 0.0801 | – | 2.62e-07
[1], x2 = 0.1272 | – | 4.01e-07
[1], x2 = 0.2396 | – | 6.78e-07
[1], x2 = 0.3349 | – | 8.74e-07
[1], x2 = 0.4168 | – | 9.74e-07
[1], x2 = 0.4924 | – | 1.046e-06
[1], x2 = 0.5597 | – | 1.06e-06
[1], x2 = 0.6205 | – | 1.048e-06
[1], x2 = 0.6702 | – | 1.016e-06
[1], x2 = 0.7236 | – | 9.42e-07
[1], x2 = 0.7691 | – | 8.65e-07
[1], x2 = 0.81 | – | 7.81e-07
[1], x2 = 0.8486 | – | 6.76e-07
[1], x2 = 0.8816 | – | 5.66e-07
[1], x2 = 0.9135 | – | 4.36e-07
[1], x2 = 0.9437 | – | 3.04e-07
[1], x2 = 0.972 | – | 1.85e-07
[2], x2 = 0.1025 | 0.107 | –
[2], x2 = 0.2064 | 0.193 | –
[2], x2 = 0.3097 | 0.268 | –
[2], x2 = 0.4012 | 0.318 | –
[2], x2 = 0.4828 | 0.345 | –
[2], x2 = 0.5438 | 0.354 | –
[2], x2 = 0.5906 | 0.353 | –
[2], x2 = 0.6218 | 0.348 | –
[2], x2 = 0.6489 | 0.34 | –
[2], x2 = 0.6819 | 0.322 | –
[2], x2 = 0.7208 | 0.3 | –
[2], x2 = 0.7615 | 0.276 | –
[2], x2 = 0.8015 | 0.244 | –
[2], x2 = 0.8436 | 0.205 | –
[2], x2 = 0.8861 | 0.163 | –
[2], x2 = 0.9283 | 0.11 | –
[2], x2 = 0.9659 | 0.0516 | –
